According to publication PMC4416786, “Validation of a P-Glycoprotein (P-gp) Humanized Mouse Model by Integrating Selective Absolute Quantification of Human MDR1, Mouse Mdr1a and Mdr1b Protein Expressions with In Vivo Functional Analysis for Blood-Brain Barrier Transport” (PLoS ONE, 2015):
Like-named read-outs stand apart in the source and are kept apart here.

Assays:
[1] = target: T1, P-gp (Mus musculus, UniProt P21447); design: hMDR1 and C57BL/6 WT mice; from tissue; host or cells: blood-brain barrier (brain capillaries) of living male C57BL/6 WT mice; method as in PMID 7910522; settings: cited from earlier work
[2] = tested on: human P-gp (hMDR1); settings: digoxin 1 mg/kg s.c.; blocker one hour before digoxin
Description: (§1) The total brain concentration (ng/g brain tissue) of the substance was divided with the total plasma concentration (ng/ml) of the substance to obtain the tissue partition ratio (Kp), which was compared between the groups of mice. […] The the fraction unbound in plasma (fu, p) measured with equilibrium dialysis was used in the calculations.

[3] = target: T1, P-gp; settings: C57BL/6 WT mice, oxycodone 1 mg/kg s.c., cyclosporine A 100 mg/kg i.p., verapamil 3 mg/kg s.c. or elacridar 6 mg/kg s.c. one hour before
Description: Brain and liver were sampled after sacrificing the animal.
as §1

[4] = tested on: P-gp; design: method as in PMID 16850390; settings: cited from earlier work
[5] = tested on: P-gp; design: method as in PMID 19047468; settings: PET imaging; cited from earlier work
[6] = Plasma protein binding by high throughput equilibrium dialysis
Method: Equilibrium dialysis was performed to measure the plasma unbound fraction of the drugs studied, and to measure possible differences in the plasma protein binding between hMDR1 and C57BL/6 WT mice. A high throughput, 96 well equilibrium dialysis apparatus (Model HTD96b, HTDialysis, Connecticut, USA) with dialysis membrane strips with a molecular weight cut-off of 12–14 kDa was used. The concentrations of the substances were the same as those achieved in plasma during the in vivo experiments. One side of each well used was loaded with 125 μl of plasma spiked with drug and the other side was loaded with 125 μl phosphate buffer saline (PBS). The top surface of the Teflon block was then sealed with an adhesive film. […] Triplicates of the same concentration for each compound were measured. After the incubation period 80 μl from the buffer side was added into 80 μl of blank mouse plasma and 80 μl from the plasma was added into 80 μl of PBS. Samples were stored at -20 until analysis.

[7] = tested on: human P-gp (hMDR1); settings: mouse, in vivo
[8] = target: T1, P-gp; settings: in vivo
Method: Brain to plasma total concentration ratios (Kp) of the substances were measured for each animal. Unbound volume of distribution in brain (Vu, brain) was measured with the brain slice method [14] and fraction unbound in plasma (fu, p) was measured with high throughput equilibrium dialysis.
All the substances were administered subcutaneously except docetaxel, which was given intravenously in the tail vein as a slow injection over five minutes due to its tissue irritating character. […] The volume administered of all substances was 0.01 ml/g_body weight.
Blood was collected with a pre-heparinized syringe by cardiac puncture and was centrifuged for 5 minutes at 10000 rpm to obtain plasma. Brain was also sampled. The brain was divided in two equal parts and frozen on dry ice before weighed. All the samples were stored at -80°C until analysis.
as §1

[9] = C57BL/6, mouse, 5 h, 200 nM
[10] = target: mouse P-gp (Mus musculus, UniProt P21447); experiment: in vivo; settings: C57BL/6, mouse
[11] = tested on: human P-gp (hMDR1); experiment: in vivo; settings: hMDR1 (MDR1 humanized), mouse
[12] = tested on: P-gp; settings: rats; cited from earlier work
[13] = hMDR1 (MDR1 humanized), mouse, plasma

T1 sequence (P21447 whole entry): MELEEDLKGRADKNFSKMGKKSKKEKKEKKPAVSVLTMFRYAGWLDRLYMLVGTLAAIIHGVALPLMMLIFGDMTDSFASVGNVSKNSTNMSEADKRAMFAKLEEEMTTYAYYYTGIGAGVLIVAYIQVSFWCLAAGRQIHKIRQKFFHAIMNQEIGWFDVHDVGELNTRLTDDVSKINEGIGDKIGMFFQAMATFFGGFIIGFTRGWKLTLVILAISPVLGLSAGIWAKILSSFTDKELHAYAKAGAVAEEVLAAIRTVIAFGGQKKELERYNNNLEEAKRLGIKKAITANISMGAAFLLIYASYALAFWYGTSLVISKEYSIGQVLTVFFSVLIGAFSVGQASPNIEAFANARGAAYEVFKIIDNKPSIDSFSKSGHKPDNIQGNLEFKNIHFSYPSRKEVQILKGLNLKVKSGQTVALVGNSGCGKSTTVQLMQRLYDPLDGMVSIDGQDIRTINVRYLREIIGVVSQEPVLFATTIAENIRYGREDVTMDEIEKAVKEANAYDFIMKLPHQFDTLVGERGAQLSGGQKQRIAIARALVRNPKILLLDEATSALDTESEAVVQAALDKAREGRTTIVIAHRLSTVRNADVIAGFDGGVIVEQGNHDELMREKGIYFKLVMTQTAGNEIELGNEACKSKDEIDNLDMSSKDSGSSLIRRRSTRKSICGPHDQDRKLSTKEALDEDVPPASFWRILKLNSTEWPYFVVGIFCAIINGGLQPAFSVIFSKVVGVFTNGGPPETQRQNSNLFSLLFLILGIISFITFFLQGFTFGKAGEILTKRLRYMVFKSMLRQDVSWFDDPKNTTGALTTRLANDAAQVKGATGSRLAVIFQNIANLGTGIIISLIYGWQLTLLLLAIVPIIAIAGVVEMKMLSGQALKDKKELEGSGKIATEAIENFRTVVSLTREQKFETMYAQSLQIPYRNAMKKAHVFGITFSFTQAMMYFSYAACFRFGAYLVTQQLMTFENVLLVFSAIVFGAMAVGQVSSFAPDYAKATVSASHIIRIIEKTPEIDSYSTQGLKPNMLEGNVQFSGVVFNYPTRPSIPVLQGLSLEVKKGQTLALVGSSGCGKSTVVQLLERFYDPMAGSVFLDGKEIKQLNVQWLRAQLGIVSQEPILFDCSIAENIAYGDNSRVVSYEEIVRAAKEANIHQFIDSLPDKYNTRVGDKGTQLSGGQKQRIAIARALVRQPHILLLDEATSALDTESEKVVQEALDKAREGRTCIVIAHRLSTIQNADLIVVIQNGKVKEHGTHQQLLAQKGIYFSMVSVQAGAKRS
Sequence of mouse P-gp (P21447 whole entry): as above

CC[C@]1(O)C[C@@H]2CN(CCc3c([nH]c4ccccc34)[C@@](C(=O)OC)(c3cc4c(cc3OC)N(C)[C@H]3[C@@](O)(C(=O)OC)[C@H](OC(C)=O)[C@]5(CC)C=CCN6CC[C@]43[C@@H]65)C2)C1 [vinblastine]
Sensitivity of Mdr1a(-/-) mice compared to wild type controls [1]: 3 fold

COc1cc2c(cc1OC)CN(CCc1ccc(NC(=O)c3cccc4c(=O)c5cccc(OC)c5[nH]c34)cc1)CC2 [Elacridar]
Digoxin Kp in hMDR1 mice compared to C57BL/6 WT controls when treated with the blocker [2]: significantly higher | Effect of the P-gp blocker on oxycodone Kp [3]: not changed | Effect of the P-gp blocker on oxycodone Kp ([3]; listed as elacridar (GF120918)): no effect | Blood concentration needed in guinea pigs to obtain the same inhibition as in rats and mice [4]: higher blood concentration

O=C(c1ccc([18F])cc1)C1CCN(CCn2c(=S)[nH]c3ccccc3c2=O)CC1 [[18F]altanserine]
Brain penetration in humans relative to rodents [5]: 4.5 times

COc1ccc2c3c1O[C@H]1C(=O)CC[C@@]4(O)[C@@H](C2)N(C)CC[C@]314 [Oxycodone]
fraction unbound ([6]; C57BL/6, mouse): 0.681 | fraction unbound ([6]; hMDR1 (MDR1 humanized), mouse): 0.681

C[C@H]1O[C@@H](O[C@H]2[C@@H](O)C[C@H](O[C@H]3[C@@H](O)C[C@H](O[C@H]4CC[C@@]5(C)[C@H](CC[C@@H]6[C@@H]5C[C@@H](O)[C@]5(C)[C@@H](C7=CC(=O)OC7)CC[C@]65O)C4)O[C@@H]3C)O[C@@H]2C)C[C@H](O)[C@@H]1O [Digoxin]
fraction unbound ([6]; C57BL/6, mouse, plasma): 0.594 | fraction unbound [6, 13]: 0.607

CC(=O)O[C@@]12CO[C@@H]1C[C@H](O)[C@@]1(C)C(=O)[C@H](O)C3=C(C)[C@@H](OC(=O)[C@H](O)[C@@H](NC(=O)OC(C)(C)C)c4ccccc4)C[C@@](O)([C@@H](OC(=O)c4ccccc4)[C@H]21)C3(C)C [Docetaxel]
fraction unbound ([6]; C57BL/6, mouse, plasma): 0.053 | fraction unbound [6, 13]: 0.052 | Kp in hMDR1 mice relative to C57BL/6 WT mice [7]: 2 times | Kp in Mdr1a/1b(-/-) mice relative to FVB WT controls [8]: 4 times | Vu, brain [9]: 789 ml/g_brain | Vu, brain (nonspecific binding to brain parenchymal tissue) [9]: 789 ml*g_brain^-1 | Kp uu at 1 h [10]: 0.002 | Kp uu at 1 h [11]: 0.003

C=C[C@H]1C[N@@]2CC[C@H]1C[C@@H]2[C@@H](O)c1ccnc2ccc(OC)cc12 [Quinidine, Quinidine gluconate]
Digoxin Kp in hMDR1 mice compared to C57BL/6 WT controls when treated with the blocker [2]: significantly higher

C/C=C/C[C@@H](C)C(=O)[C@H]1C(=O)N[C@@H](C(C)C)C(=O)N(C)CC(=O)N(C)[C@@H](CC(C)C)C(=O)N[C@@H](C(C)C)C(=O)N(C)[C@@H](CC(C)C)C(=O)N[C@@H](C)C(=O)N[C@H](C)C(=O)N(C)[C@@H](CC(C)C)C(=O)N(C)[C@@H](CC(C)C)C(=O)N(C)[C@@H](C(C)C)C(=O)N1C [PSC833]
Effect of the P-gp blocker on the tail-flick latency of oxycodone [12]: no effect
